In general, IC50 refers to the point on the concentration scale where inhibition reaches its midpoint. The bioavailability is dose-corrected exposure relative to a reference, in per cent. Higher therefore signals good availability. Broadly, the solubility is the dissolved amount per volume that the medium holds.

Data set [1] concerns the target T1, CYP2C19 (Homo sapiens, UniProt P33261).
T1 construct: Enzyme, pooled human hepatic microsome 0.2 mg protein/mL; from tissue; host or cells: pooled human hepatic microsomes
In words: CYP inhibition test (CYP2C19). Particulars: pooled human hepatic microsome, mephenyloin 4′-hydroxylation. It counts as in vitro ADME. As to the method: (§1) Using commercially available pooled human hepatic microsome, and employing, as markers, 7-ethoxyresorufin O-deethylation (CYP1A2), tolbutamide methyl-hydroxylation (CYP2C9), mephenyloin 4′-hydroxylation (CYP2C19), dextromethorphan O-demethylation (CYP2D6), and terfenedine hydroxylation as typical substrate metabolism reactions of human main five CYP enzyme forms (CYP1A2, 2C9, 2C19, 2D6, 3A4), an inhibitory degree of each metabolite production amount by a test compound was assessed.
(§2) The reaction conditions were as follows: […]
(§3) Each five kinds of substrates, human hepatic microsome, or a test drug in 50 mM Hepes buffer as a reaction solution was added to a 96-well plate at the composition as described above, NADPH, a cofactor, was added to initiate metabolism reactions as markers and, after the incubation at 37° C. for 15 minutes, a methanol/acetonitrile=1/1 (v/v) solution was added to stop the reaction. After the centrifugation at 3000 rpm for 15 minutes, resorufin (CYP1A2 metabolite) in the supernatant was quantified by a fluorescent multilabel counter and tributamide hydroxide (CYP2CP metabolite), mephenyloin 4′ hydroxide (CYP2C19 metabolite), […], and terfenadine alcohol (CYP3A4 metabolite) were quantified by LC/MS/MS. […]

The target in data set [2] is T2, CYP1A2 (Homo sapiens, UniProt P05177).
T2 construct: Enzyme, pooled human hepatic microsome 0.2 mg protein/mL; from tissue; host or cells: pooled human hepatic microsomes
T2 sequence (P05177 1-516): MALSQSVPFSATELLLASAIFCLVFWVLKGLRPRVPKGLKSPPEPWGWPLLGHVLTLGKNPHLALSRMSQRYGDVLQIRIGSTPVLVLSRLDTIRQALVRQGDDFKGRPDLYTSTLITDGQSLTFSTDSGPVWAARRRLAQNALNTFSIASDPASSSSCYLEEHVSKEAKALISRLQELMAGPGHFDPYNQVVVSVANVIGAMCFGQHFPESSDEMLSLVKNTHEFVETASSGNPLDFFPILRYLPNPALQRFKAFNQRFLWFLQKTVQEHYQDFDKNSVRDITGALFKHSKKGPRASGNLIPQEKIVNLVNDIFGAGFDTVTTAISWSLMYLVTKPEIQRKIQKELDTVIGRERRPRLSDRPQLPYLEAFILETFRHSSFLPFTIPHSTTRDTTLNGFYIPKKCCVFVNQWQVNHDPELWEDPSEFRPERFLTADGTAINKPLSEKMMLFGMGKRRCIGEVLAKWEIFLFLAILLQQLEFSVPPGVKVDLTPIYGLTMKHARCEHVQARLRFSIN
The experiment in a line: CYP inhibition test (CYP1A2). The class given is in vitro ADME. The note with it: pooled human hepatic microsome, 7-ethoxyresorufin O-deethylation. The procedure: as §1, §2, §3

In data set [3] the target is CYP3A4 (Homo sapiens, UniProt P08684). The experiment in a line: CYP inhibition test (CYP3A4). Particulars: pooled human hepatic microsome, terfenedine hydroxylation. It counts as in vitro ADME. Set-up: Enzyme, pooled human hepatic microsome 0.2 mg protein/mL; from tissue; host or cells: pooled human hepatic microsomes. As to the method:
as §1, §2, §3

The target in data set [4] is T3, CYP2C9 (Homo sapiens, UniProt P11712).
T3 construct: Enzyme, pooled human hepatic microsome 0.2 mg protein/mL; from tissue; host or cells: pooled human hepatic microsomes
T3 sequence (P11712 whole entry): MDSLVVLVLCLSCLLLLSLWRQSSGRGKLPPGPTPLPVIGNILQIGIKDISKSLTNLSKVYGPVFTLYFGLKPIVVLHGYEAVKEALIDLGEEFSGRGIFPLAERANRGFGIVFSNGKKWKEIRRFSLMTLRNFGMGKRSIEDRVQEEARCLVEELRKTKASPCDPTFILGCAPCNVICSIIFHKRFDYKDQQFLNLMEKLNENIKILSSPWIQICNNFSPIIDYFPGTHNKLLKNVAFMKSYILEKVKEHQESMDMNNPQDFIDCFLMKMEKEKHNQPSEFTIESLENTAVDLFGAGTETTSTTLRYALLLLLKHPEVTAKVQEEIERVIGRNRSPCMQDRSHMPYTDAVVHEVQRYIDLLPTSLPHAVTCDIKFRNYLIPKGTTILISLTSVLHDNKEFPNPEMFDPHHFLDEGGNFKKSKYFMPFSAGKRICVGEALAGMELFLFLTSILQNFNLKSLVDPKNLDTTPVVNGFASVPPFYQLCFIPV
In words: CYP inhibition test (CYP2C9). It counts as in vitro ADME. Particulars: pooled human hepatic microsome, tolbutamide methyl-hydroxylation. The procedure: as §1, §2, §3

In data set [5] the test system is Neuroblastoma SH-SY5Y cells (SH/APPwt) with human wild-type β-APP excessively expressed. The experiment in a line: Measurement of β-amyloid (Aβ) production inhibitory effect in cell. The class given is cell-based. Particulars: Homo sapiens, SH-SY5Y, 24 h, amount needed to inhibit Aβ production by 50%, 24 hours incubation, Amyloid β1-40 HTRF. As to the method: Neuroblastoma SH-SY5Y cells (SH/APPwt) with human wild-type β-APP excessively expressed therein were prepared at 8×10^5 cells/mL, and 150 μl portions thereof were inoculated into each well of a 96-well culture plate (Falcon). The cells were cultured for 2 hours at 37° C. in a 5% gaseous carbon dioxide incubator. Then, a solution which had been preliminarily prepared by adding and suspending the test compound (DMSO (dimethyl sulfoxide) solution) so as to be 2 μl/50 μl medium was added to the cell sap. Namely, the final DMSO concentration was 1%, and the amount of the cell culture was 200 μl. After the incubation was performed for 24 hours from the addition of the test compound, 100 μl of the culture supernatant was collected from each fraction. The amount of the Aβ in each fraction was measured.
The […] was measured as follows. 10 μl of a homogeneous time resolved fluorescence (HTRF) measurement reagent (Amyloid β1-40 peptide; IBA Molecular Holding, S.A.) and 10 μl of the culture supernatant were put into a 384-well half area microplate (black microplate, Costar) and mixed with each other, and then left standing overnight at 4° C. while the light was shielded. Then, the fluorescence intensity (excitation wavelength: 337 nm, measurement wavelength: 620 nm and 665 nm) was measured with a Wallac 1420 multilabel counter (Perkin Elmer life sciences). The Aβ amount was determined from the count rate at each measurement wavelength (10000×Count 665/Count 620), and the amount needed to inhibit Aβ production by 50% (IC50) was calculated from at least six different dosages.
Background: In TR-FRET formats the signal depends on donor and acceptor labels being close together.

In data set [6] the target is T4, CYP2D6 (Homo sapiens, UniProt P10635).
T4 construct: Enzyme, pooled human hepatic microsome 0.2 mg protein/mL; from tissue; host or cells: pooled human hepatic microsomes
T4 sequence (P10635 whole entry): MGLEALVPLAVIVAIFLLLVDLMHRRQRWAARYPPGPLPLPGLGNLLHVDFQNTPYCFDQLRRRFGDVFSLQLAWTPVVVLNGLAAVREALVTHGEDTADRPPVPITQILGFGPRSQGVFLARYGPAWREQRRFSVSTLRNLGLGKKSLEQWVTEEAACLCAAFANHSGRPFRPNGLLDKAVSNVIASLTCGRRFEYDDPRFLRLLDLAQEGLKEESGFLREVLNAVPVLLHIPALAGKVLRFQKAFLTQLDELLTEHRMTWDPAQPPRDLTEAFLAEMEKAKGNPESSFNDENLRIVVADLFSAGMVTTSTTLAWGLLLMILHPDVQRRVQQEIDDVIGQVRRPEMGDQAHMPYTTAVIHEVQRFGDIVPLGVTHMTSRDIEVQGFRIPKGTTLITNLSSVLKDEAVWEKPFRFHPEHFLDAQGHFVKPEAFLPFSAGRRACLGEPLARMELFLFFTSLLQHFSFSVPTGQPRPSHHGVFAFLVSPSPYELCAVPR
The experiment in a line: CYP inhibition test (CYP2D6). It counts as in vitro ADME. Particulars: pooled human hepatic microsome, dextromethorphan O-demethylation. The procedure:
as §1, §2, §3

Data set [7] concerns the target T5, Recombinant human BACE1 (Homo sapiens, UniProt P56817).
T5 construct: purchased R&D Systems
The experiment in a line: Assay of BACE1 inhibiting activity. The class given is biochemical. Particulars: 50% inhibitory concentration against enzymatic activity, pH 5.0, 30° C., 3 hours. As to the method: 48.5 μL of substrate peptide solution (Biotin-XSEVNLDAEFRHDSGC-Eu: Xεε-amino-n-capronic acid, Eu=Europium cryptate) was added to each well of 96-hole half-area plate (a black plate: Costar Corporation), and after addition of 0.5 μl of the test compound (dissolved in […]) and 1 μl of Recombinant human BACE1 (R&D Systems), the reaction mixture was incubated at 30° C. for 3 hours. The substrate peptide was synthesized by reacting Cryptate TBPCOOH mono SMP (CIS bio international) with Biotin-XSEVNLDAEFRHDSGC (Peptide Institute, Inc.). The final concentrations of the substrate peptide and Recombinant human BACE1 were adjusted to 18 nM and 7.4 nM respectively, and the reaction was performed in sodium acetate buffer (50 mM sodium acetate, pH 5.0, 0.008% Triton X-100). After the completion of reaction, 50 μl of 8.0 μg/ml Streptavidin-XL665 (CIS bio international) dissolved in phosphate buffer (150 mM K2HPO4—KH2PO4, pH 7.0, 0.008% Triton X-100, 0.8 M KF) was added to each well and left stand at 30° C. for an hour. Then, fluorescence intensity was measured (excitation wavelength: 320 nm, measuring wavelength: 620 nm and 665 nm) using Wallac 1420 multilabel counter (Perkin Elmer life sciences). Enzymatic activity was determined from counting ratio of each wavelength (10,000×Count 665/Count 620) and 50% inhibitory concentration against the enzymatic activity was calculated.

Data set [8] is described as follows: BA test. The class given is in vivo. Particulars: rat, plasma; SD rats, from AUCs of oral and intravenous administration. As to the method:
Materials and methods for studies on oral absorption
(2) Breeding conditions: rats were allowed to freely take solid feed and sterilized tap water
(3) Dose and grouping: orally or intravenously administered at a predetermined dose; grouping was as follows (Dose depends on the compound)
Oral administration: 1 to 30 mg/kg (n=2 to 3)
Intravenous administration: 0.5 to 10 mg/kg (n=2 to 3)
(4) Preparation of dosing solution: for oral administration, in a solution or a suspension state; for intravenous administration, in a solubilized state
(5) Administration method: in oral administration, forcedly administer into ventriculus with oral probe; in intravenous administration, administer from caudal vein with a needle-equipped syringe
(6) Evaluation items: blood was collected over time, and the plasma concentration of drug was measured by LC/MS/MS
(7) Statistical analysis: regarding the transition of the plasma concentration, the area under the plasma concentration-time curve (AUC) was calculated by non-linear least squares program WinNonlin (Registered trademark), and the bioavailability (BA) was calculated from the AUCs of the oral administration group and intravenous administration group

Data set [9] in a line: Metabolic stability test. It counts as in vitro ADME. The note with it: human liver microsomes 0.5 mg protein/mL, 1 mmol/L NADPH, 30 minutes at 37° C. As to the method:
The target compound was reacted with commercially available pooled human liver microsomes for a predetermined time period. The residual rate was calculated by comparing the reacted sample and unreacted sample, and thus the degree of metabolism in liver was evaluated.
In 0.2 mL of a buffer (50 mmol/L tris-HCl pH 7.4, 150 mmol/L potassium chloride, 10 mmol/L magnesium chloride) containing human liver microsomes 0.5 mg protein/mL, reaction was carried out in the presence of 1 mmol/L NADPH for 0 minute or 30 minutes at 37° C. (oxidative reaction). After the reaction, 50 μL of the reaction solution was added to and mixed with 100 μL of a solution of methanol/acetonitrile=1/1 (v/v), and the mixture was centrifuged for 15 minutes at 3000 rpm. The test compound in the centrifuged supernatant was quantified by LC/MS/MS, and the residual amount of the test compound after the reaction was calculated based on the compound amount at O-minute reaction set as 100%.
In general terms: Liver microsomes are vesicles of endoplasmic reticulum, rich in cytochrome P450 enzymes.

Data set [10] can be described thus: Solubility test. The class given is physicochemical. Particulars: JP-I medium with 2% DMSO, pH 1.2, simulated gastric fluid, kinetic from dmso stock, turbidity after 4 hours. As to the method: A 2-fold dilution series (12 points) of a 10 mM solution of a test compound in DMSO was added to a medium (JP-I, JP-II) (2%), and solubility was assessed by 3 stages (High; >40 μM, Medium; 3-40 μM, Low; <3 μM) from a turbidity after 4 hours (crystallization information).

T5 sequence (P56817 46-501): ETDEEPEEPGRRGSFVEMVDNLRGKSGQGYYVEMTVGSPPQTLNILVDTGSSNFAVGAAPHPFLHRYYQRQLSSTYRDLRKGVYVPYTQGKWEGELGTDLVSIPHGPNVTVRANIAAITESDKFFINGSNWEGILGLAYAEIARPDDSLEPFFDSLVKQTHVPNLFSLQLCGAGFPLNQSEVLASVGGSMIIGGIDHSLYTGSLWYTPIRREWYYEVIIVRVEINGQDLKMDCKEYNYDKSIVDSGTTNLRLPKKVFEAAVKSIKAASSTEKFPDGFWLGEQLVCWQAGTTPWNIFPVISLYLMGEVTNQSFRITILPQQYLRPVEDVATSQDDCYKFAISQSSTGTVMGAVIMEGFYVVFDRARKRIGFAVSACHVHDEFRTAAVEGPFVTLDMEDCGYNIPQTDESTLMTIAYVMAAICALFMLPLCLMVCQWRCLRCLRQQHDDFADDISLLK
T1 sequence (P33261 whole entry): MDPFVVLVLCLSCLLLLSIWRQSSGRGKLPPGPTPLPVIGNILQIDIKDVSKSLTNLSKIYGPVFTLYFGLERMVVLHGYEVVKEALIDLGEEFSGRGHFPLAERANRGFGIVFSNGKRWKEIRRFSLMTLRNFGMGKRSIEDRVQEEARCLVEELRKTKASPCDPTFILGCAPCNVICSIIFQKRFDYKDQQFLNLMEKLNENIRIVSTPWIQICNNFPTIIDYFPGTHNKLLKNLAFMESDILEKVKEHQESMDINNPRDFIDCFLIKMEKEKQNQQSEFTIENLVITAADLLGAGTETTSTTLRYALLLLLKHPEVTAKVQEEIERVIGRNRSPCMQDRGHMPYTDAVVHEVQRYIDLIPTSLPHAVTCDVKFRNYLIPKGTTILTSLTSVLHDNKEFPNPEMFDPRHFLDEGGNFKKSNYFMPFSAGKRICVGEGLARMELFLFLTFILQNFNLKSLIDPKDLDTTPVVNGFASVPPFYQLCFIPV
Sequence of CYP3A4 (P08684 whole entry): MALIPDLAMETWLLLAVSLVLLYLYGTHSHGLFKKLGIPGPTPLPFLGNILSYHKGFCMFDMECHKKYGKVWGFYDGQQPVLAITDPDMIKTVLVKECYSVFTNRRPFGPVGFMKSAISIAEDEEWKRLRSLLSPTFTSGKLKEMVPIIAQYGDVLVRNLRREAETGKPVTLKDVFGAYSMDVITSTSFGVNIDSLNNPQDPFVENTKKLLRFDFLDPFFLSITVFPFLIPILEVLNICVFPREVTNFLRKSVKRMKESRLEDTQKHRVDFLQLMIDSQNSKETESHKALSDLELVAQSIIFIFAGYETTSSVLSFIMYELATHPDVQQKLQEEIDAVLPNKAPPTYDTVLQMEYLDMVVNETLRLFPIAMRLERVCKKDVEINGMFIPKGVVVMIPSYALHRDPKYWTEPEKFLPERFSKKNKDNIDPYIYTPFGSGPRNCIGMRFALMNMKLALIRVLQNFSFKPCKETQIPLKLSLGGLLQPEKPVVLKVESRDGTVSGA

For the compound `N#Cc1ccc(C(=O)Nc2cccc(C/N=C(\N)OCCCO)c2)nc1` [Compound 36], the IC50 in [1] was over 20 µM; in data set [2], over 20 µM; in data set [3] it was over 20 µM; in data set [4], over 20 µM; in data set [5], at most 1 µM; in [6], over 20 µM.
In the case of `CO/C(N)=N\C1(c2cccc(NC(=O)c3cnc(C)cn3)c2)CC1` [Compound 41], the IC50 was over 20 µM in data set [1]; over 20 µM in data set [2]; over 20 µM in data set [3]; over 20 µM in data set [4]; at most 1 µM in [5]; over 20 µM in [6].
Take `CO/C(N)=N/C(c1ccccc1)c1cccc(NC(=O)c2ccc(C#N)cn2)c1` (centres unmarked) [Compound 48]: the IC50 in [7] and in data set [5] was at most 1 µM in each case. This compound returned a bioavailability in data set [8] of 87.2%.
For the compound `CO/C(N)=N/C(c1ccc(F)cc1)c1cccc(NC(=O)c2ccc(C#N)cn2)c1` (centres unmarked) [Compound 50], the “residual amount of the test compound after the reaction” value in [9] is 100%. The IC50 is 0.188 µM in [7] and at most 1 µM in data set [5].
As for `CO/C(N)=N\c1cccc2ncc(NC(=O)c3ccc(C#N)cn3)cc12` [Compound 76], the “residual amount of the test compound after the reaction” value in [9] is 98.9%. In [10], this compound showed a solubility at 4 h of over 40 µM.
`CO/C(N)=N\c1c(C)ccc2ccc(NC(=O)c3ccc(C#N)cn3)cc12` [Compound 77]: the IC50 in data set [7] and in [5] was at most 1 µM each time. Moreover, the bioavailability in data set [8] is 75%.

These data come from patent US20120015961A1, “ISOTHIOUREA DERIVATIVES OR ISOUREA DERIVATIVES HAVING BACE1 INHIBITORY ACTIVITY” (SHIONOGI & CO., LTD., priority 2009, published 2012).
